Tests used:
[1] = system: E. hormaechei (CCUG #58962); assay: Antibacterial activity against isolates (Omnilog, Biolog redox dye); format: cell-based, Enterobacter hormaechei; conditions: Enterobacter hormaechei, CCUG58962; ca-MH broth, 24 h, 37 °C
Protocol: (§1) The antibacterial activities of eight compounds (1, 3, 4, 6, 8, 10, 16, and 17) were tested against 10 different isolates of Gram-negative bacteria from human and other sources, two E. coli (CCUG #67180 and CCUG #17620/ATCC #25922, control strain), two K. pneumoniae (CCUG #58547 and CCUG #225T), two P. aeruginosa (CCUG #17619 and CCUG #59347), two A. baumannii (CCUG #57035 and CCUG #57250), E. cloacae (CCUG #6323T), and E. hormaechei (CCUG #58962) in a 96-well plate format. […] Bacterial mass from the ten isolates grown overnight on horse blood or Mueller–Hinton agar plates was suspended in ca-MH and adjusted to a final inoculum cell density of ~5 × 10^5 CFU/mL. For all assays, Biolog redox dye A diluted 100× from the stock solution was used for measurements of all ten isolates (up to a total volume of 120 µL per well). All plates included one well per isolate with only inoculum and dye but no test compound (i.e., positive control) and one well per isolate with inoculum, dye and DMSO diluted 1667×, corresponding to the DMSO concentration in the wells with the highest concentration of test compound. All measurements were performed using the Omnilog microplate reader (Biolog, Hayward, CA, USA) where the 96-well plates were read at 15 min intervals for a total of 24 h at 37 °C.

[2] = system: Acinetobacter baumannii CCUG # 57250; assay: MIC of established antibiotics, micro-broth dilution; conditions: CCUG57250, read-out: MIC Acinetobacter baumannii CCUG 57250
[3] = system: Enterobacter hormaechei CCUG # 58962; assay: as above; conditions: CCUG58962, read-out: MIC Enterobacter hormaechei CCUG 58962
[4] = system: K. pneumoniae (CCUG #58547); assay: Antibacterial activity against isolates (Omnilog, Biolog redox dye); format: cell-based, Klebsiella pneumoniae; conditions: Klebsiella pneumoniae, CCUG58547; ca-MH broth, 24 h, 37 °C
Protocol: as §1

[5] = system: Klebsiella pneumoniae CCUG # 225T; assay: MIC of established antibiotics, micro-broth dilution; conditions: read-out: MIC Klebsiella pneumoniae CCUG 225T
[6] = system: P. aeruginosa (CCUG #59347); assay: Antibacterial activity against isolates (Omnilog, Biolog redox dye); format: cell-based, Pseudomonas aeruginosa; conditions: Pseudomonas aeruginosa, CCUG59347; ca-MH broth, 24 h, 37 °C
Protocol: as §1

[7] = system: Pseudomonas aeruginosa CCUG # 59347; assay: MIC of established antibiotics, micro-broth dilution; conditions: CCUG59347, read-out: MIC Pseudomonas aeruginosa CCUG 59347
E. coli (CCUG #67180) = assay: Antibacterial activity against isolates (Omnilog, Biolog redox dye); format: cell-based, Escherichia coli; conditions: Escherichia coli, ca-MH broth, 24 h, 37 °C
Protocol: (§2) The antibacterial activities of eight compounds (1, 3, 4, 6, 8, 10, 16, and 17) were tested against 10 different isolates of Gram-negative bacteria from human and other sources, two E. coli (CCUG #67180 and CCUG #17620/ATCC #25922, control strain), two K. pneumoniae (CCUG #58547 and CCUG #225T), two P. aeruginosa (CCUG #17619 and CCUG #59347), two A. baumannii (CCUG #57035 and CCUG #57250), E. cloacae (CCUG #6323T), and E. hormaechei (CCUG #58962) in a 96-well plate format. The compounds to test were 3-fold diluted in six steps in cation-adjusted Mueller-Hinton (ca-MH) broth to final concentrations spanning from 30 to 0.12 µM, i.e., a 1667–416,667 times dilution from the 50 mM stocks. Bacterial mass from the ten isolates grown overnight on horse blood or Mueller–Hinton agar plates was suspended in ca-MH and adjusted to a final inoculum cell density of ~5 × 10^5 CFU/mL. For all assays, Biolog redox dye A diluted 100× from the stock solution was used for measurements of all ten isolates (up to a total volume of 120 µL per well). All plates included one well per isolate with only inoculum and dye but no test compound (i.e., positive control) and one well per isolate with inoculum, dye and DMSO diluted 1667×, corresponding to the DMSO concentration in the wells with the highest concentration of test compound. All measurements were performed using the Omnilog microplate reader (Biolog, Hayward, CA, USA) where the 96-well plates were read at 15 min intervals for a total of 24 h at 37 °C.

[8] = system: E. coli (CCUG #17620/ ATCC #25922); assay: as above; format: cell-based, Escherichia coli; conditions: Escherichia coli; ca-MH broth, 24 h, 37 °C
Protocol: as §2

[9] = system: K. pneumoniae (CCUG #225T); assay: as above; format: cell-based, Klebsiella pneumoniae; conditions: Klebsiella pneumoniae; ca-MH broth, 24 h, 37 °C
Protocol: as §2

[10] = system: P. aeruginosa (CCUG #17619); assay: as above; format: cell-based, Pseudomonas aeruginosa; conditions: Pseudomonas aeruginosa, CCUG17619; ca-MH broth, 24 h, 37 °C
Protocol: as §2

[11] = system: Enterobacter cloacae CCUG # 6323T; assay: MIC of established antibiotics, micro-broth dilution; conditions: read-out: MIC Enterobacter cloacae CCUG 6323T
E. cloacae (CCUG #6323T) = assay: Antibacterial activity against isolates (Omnilog, Biolog redox dye); format: cell-based, Enterobacter cloacae; conditions: Enterobacter cloacae; ca-MH broth, 24 h, 37 °C
Protocol: as §2

[12] = system: Escherichia coli CCUG # 17620; assay: MIC of established antibiotics, micro-broth dilution; conditions: CCUG17620, read-out: MIC Escherichia coli CCUG 17620
[13] = system: Escherichia coli CCUG # 67180; assay: as above; conditions: CCUG67180, read-out: MIC Escherichia coli CCUG 67180
[14] = system: Klebsiella pneumoniae CCUG # 58547; assay: as above; conditions: CCUG58547, read-out: MIC Klebsiella pneumoniae CCUG 58547
[15] = system: A. baumannii (CCUG #57250); assay: Antibacterial activity against isolates (Omnilog, Biolog redox dye); format: cell-based, Acinetobacter baumannii; conditions: Acinetobacter baumannii, ca-MH broth, 24 h, 37 °C
Protocol: as §2

[16] = system: A. baumannii (CCUG #57035); assay: as above; format: cell-based, Acinetobacter baumannii; conditions: Acinetobacter baumannii, CCUG57035; ca-MH broth, 24 h, 37 °C
Protocol: as §1

[17] = system: Pseudomonas aeruginosa CCUG # 17619; assay: MIC of established antibiotics, micro-broth dilution; conditions: CCUG17619, read-out: MIC Pseudomonas aeruginosa CCUG 17619
[18] = system: Acinetobacter baumannii CCUG # 57035; assay: as above; conditions: CCUG57035, read-out: MIC Acinetobacter baumannii CCUG 57035

SMILES	MIC [2]	MIC [3]	MIC [5]	MIC [7]	MIC [11]	MIC [12]	MIC [13]	MIC [14]	MIC [17]	MIC [18]	also measured
CO/N=C(\C(=O)N[C@@H]1C(=O)N2C(C(=O)O)=C(COC(C)=O)CS[C@H]12)c1csc(N)n1 [CTX, Cefotaxime, reference compound]	36 µM	280 µM	0.25 µM	> 560 µM	9 to 36 µM	0.25 to 0.5 µM	280 µM	560 µM	36 µM	> 560 µM	EC50 [1]: 78.4 µM; EC90 [1]: 158 µM; EC50 [4]: 324 µM; EC90 [4]: 478 µM; EC50 [6]: 1510 µM; EC90 [6]: 1680 µM; EC90 (E. coli (CCUG #67180); CCUG67180, 24 h): 183 µM; EC50 (E. coli (CCUG #67180); CCUG67180): 161 µM; EC50 [8]: 0.2 µM; EC90 [8]: 0.3 µM; EC50 [9]: 0.2 µM; EC90 [9]: 0.3 µM; EC50 [10]: 13 µM; EC90 [10]: 18.4 µM; EC50 (E. cloacae (CCUG #6323T)): 2.1 µM; EC90 (E. cloacae (CCUG #6323T)): 4.5 µM; EC90 ([15]; CCUG57250, 24 h): 48 µM; EC50 ([15]; CCUG57250): 23.4 µM; EC50 [16]: 430 µM; EC90 [16]: 681 µM
CC1(C)S[C@@H]2[C@H](NC(=O)[C@H](N)c3ccc(O)cc3)C(=O)N2[C@H]1C(=O)O [Amoxicillin]	175 µM	350 µM	350 µM	350 µM	350 µM	11 to 44 µM	350 µM	350 µM	350 µM	175 µM	–
C[C@@H](O)[C@H]1C(=O)N2C(C(=O)O)=C(S[C@@H]3CN[C@H](C(=O)N(C)C)C3)[C@H](C)[C@H]12 [Meropenem]	40 µM	0.3 µM	0.16 to 0.32 µM	335 µM	0.6 to 1.2 µM	0.16 µM	10 to 20 µM	> 80 µM	2.6 to 5.2 µM	335 µM	–

From PMC9404985, “Development of Dicationic Bisguanidine-Arylfuran Derivatives as Potent Agents against Gram-Negative Bacteria” (Antibiotics, 2022)
